According to patent US20260265256A1 (IMPACT THERAPEUTICS (SHANGHAI), INC., priority 2023, published 2026):

How the values were obtained:
MDA-MB-436 cells = experiment: Growth inhibition assay against BRCA mutant human breast cancer MDA-MB-436 cell line (CCK-8, 7 days); assay type: cell-based; settings: 168 h, MDA-MB-436, 7 days, read-out: IC50 (nM), proliferation of human breast cancer cells MDA-MB-436
Protocol: The cells were cultured in complete medium (DMEM medium+10% FBS+Insulin+glutathione). When the confluence reached about 80%, cells were digested and gently dispensed from the bottom of the dish with a 1 mL pipette. Cell suspension was collected and centrifuged at 500 rpm for 3 min. The supernatant was discarded, and the cell pellet were re-suspended in complete medium. The cells were seeded into a culture dish at an appropriate proportion, and then cultured in a 5% CO2 incubator at 37° C. The assay was carried out when the cells were in optimum condition and the confluence was reached 80%. Cells in the logarithmic growth phase were taken to centrifugate, and the culture supernatant was removed. The cells were resuspended in refresh complete medium and counted. The resuspended cells were seeded at 3000/well in a 96-well plate and incubated at 37° C., 5% CO2 incubator overnight. […] The solution was mixed by oscillation. 0.10% DMSO was used as the control.
The next day, the 96-well plate inoculated with cells was taken out from the incubator, and the culture supernatant was removed. Then fresh medium of 195 uL/well and 5 μL/well of 40× test compound solution as mentioned above were added into the 96 well plate, respectively. Finally, the plate was incubated for 7 days in a 37° C. 5% CO2 incubator. The medium containing compound was changed on the fourth day. After 7 days, 20 μL of CCK-8 was added to each well and shaken gently, then was cultured for 4 hours. The plate was shaken for 5 min after incubation, the absorbance values of 450 nm or 650 nm wavelengths were recorded respectively (OD=absorbance value of 450 nm−absorbance value of 650 nm) by using the multifunction readout instrument.
Data were analyzed by software GraphPad Prism 6.0. The inhibitory activity of compounds on cell proliferation was plotted using cell survival rate against the compound concentration as coordinates. Cell survival rate %=(ODcompound−ODbackground)/(ODDMSO−ODbackground)×100.
Table 2 summarizes the inhibitory effect data (IC50) of the compounds on the proliferation of human breast cancer cells MDA-MB-436.

[1] = biological target: recombinant poly(ADP-ribose) polymerase 2 (PARP2) (Homo sapiens, UniProt Q9UGN5); experiment: PARP2 chemiluminescent assay; assay type: biochemical; settings: PARP2 enzyme activity, chemiluminescence, 40 ng enzyme/well
Sequence of recombinant poly(ADP-ribose) polymerase 2 (PARP2) (Q9UGN5 whole entry): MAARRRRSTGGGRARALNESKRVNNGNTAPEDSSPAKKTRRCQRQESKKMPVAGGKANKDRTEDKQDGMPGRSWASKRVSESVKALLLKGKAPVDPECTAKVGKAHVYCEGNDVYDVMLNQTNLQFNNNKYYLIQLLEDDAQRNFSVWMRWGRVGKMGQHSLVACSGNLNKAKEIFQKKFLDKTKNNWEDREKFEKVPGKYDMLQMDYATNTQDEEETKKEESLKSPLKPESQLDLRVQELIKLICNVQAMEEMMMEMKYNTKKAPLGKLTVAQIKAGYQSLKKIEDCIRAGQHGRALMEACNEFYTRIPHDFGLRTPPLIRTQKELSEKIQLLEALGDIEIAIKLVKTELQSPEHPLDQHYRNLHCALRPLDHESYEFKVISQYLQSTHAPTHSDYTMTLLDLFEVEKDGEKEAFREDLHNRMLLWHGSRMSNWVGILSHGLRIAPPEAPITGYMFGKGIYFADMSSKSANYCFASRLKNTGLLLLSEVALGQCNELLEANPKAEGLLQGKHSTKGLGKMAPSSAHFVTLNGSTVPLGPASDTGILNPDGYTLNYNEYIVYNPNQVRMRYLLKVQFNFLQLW
Protocol: The solution of recombinant poly(ADP-ribose) polymerase 1 and 2 (PARP1 and PARP2) (40 ng enzyme/well) and the compounds to be tested were mixed, respectively. The solutions were added to a 96-well plate coated with histone mixture, incubated at room temperature for 1 h, then 50 μL 0.3 ng/mL Streptavidin-HRP was added to each well. The plates were incubated for 30 minutes at room temperature. Finally, the plates were treated with streptavidin-HRP followed by addition of the ELISA ECL substrate to produce chemiluminescence that can be measured using a chemiluminescence reader. Inhibition of the tested compound to PARP1/2 enzyme activity was calculated according to the following formula. [formula] IC50 value is obtained by fitting the s-shaped dose response curve equation by using XL Fit software.

SMILES | IC50 (MDA-MB-436 cells) | IC50 [1]
CNC(=O)c1ccc(-n2cc3c(n2)CN(Cc2ccc4c([nH]c(=O)c5c(C)cnn54)c2F)C3)c(C)n1 [Example 2, 5-(5-((6-fluoro-3-methyl-4-oxo-4,5-dihydropyrazolo[1,5-a]quinoxalin-7-yl)methyl)-5,6-dihydropyrrolo[3,4-c]pyrazol-2(4H)-yl)-N,6-dimethylpicolinamide] | 57 nM | 
CNC(=O)c1ccc(-n2cc3c(n2)CN(Cc2ccc4c([nH]c(=O)c5c(C)cnn54)c2F)C3)c(F)n1 [Example 3, 5-(5-((6-fluoro-3-methyl-4-oxo-4,5-dihydropyrazolo[1,5-a]quinoxalin-7-yl)methyl)-5,6-dihydropyrrolo[3,4-c]pyrazol-2(4H)-yl)-6-fluoro-N-methylpicolinamide] | 9.71 nM | 
CNC(=O)c1ccc(-n2cc3c(n2)CN(Cc2ccc4c([nH]c(=O)c5c(C)cnn54)c2F)C3)c(Cl)n1 [Example 4, 5-(5-((6-fluoro-3-methyl-4-oxo-4,5-dihydropyrazolo[1,5-a]quinoxalin-7-yl)methyl)-5,6-dihydropyrrolo[3,4-c]pyrazol-2(4H)-yl)-6-chloro-N-methylpicolinamide] | 91 nM | 
CNC(=O)c1ccc(-n2cc3c(n2)CN(Cc2ccc4c([nH]c(=O)c5c(C)cnn54)c2F)C3)c(O)n1 [Example 5, 5-(5-((6-fluoro-3-methyl-4-oxo-4,5-dihydropyrazolo[1,5-a]quinoxalin-7-yl)methyl)-5,6-dihydropyrrolo[3,4-c]pyrazol-2(4H)-yl)-6-hydroxy-N-methylpicolinamide] | > 100 nM | 
CCNC(=O)c1ccc(-n2cc3c(n2)CN(Cc2ccc4c([nH]c(=O)c5c(C)cnn54)c2F)C3)c(F)n1 [Example 7, N-ethyl-6-fluoro-5-(5-((6-fluoro-3-methyl-4-oxo-4,5-dihydropyrazolo[1,5-a]quinoxalin-7-yl)methyl)-5,6-dihydropyrrolo[3,4-c]pyrazol-2(4H)-yl)picolinamide] | 27.2 nM | 
CNC(=O)c1ccc(-n2cc3c(n2)CCN(Cc2ccc4c([nH]c(=O)c5c(C)cnn54)c2F)C3)cn1 [Example 10-1, 5-(5-((6-fluoro-3-methyl-4-oxo-4,5-dihydropyrazolo[1,5-a]quinoxalin-7-yl)methyl)-4,5,6,7-tetrahydro-2H-pyrazolo[4,3-c]pyridin-2-yl)-N-methylpicolinamide] | > 100 nM | > 10000 nM
CNC(=O)c1ccc(-n2ncc3c2CCN(Cc2ccc4c([nH]c(=O)c5c(C)cnn54)c2F)C3)cn1 [Example 10-2, 5-(5-((6-fluoro-3-methyl-4-oxo-4,5-dihydropyrazolo[1,5-a]quinoxalin-7-yl)methyl)-4,5,6,7-tetrahydro-1H-pyrazolo[4,3-c]pyridin-1-yl)-N-methylpicolinamide] | > 100 nM | > 10000 nM
CNC(=O)c1ccc(-n2cc3c(n2)CN(Cc2ccc4c([nH]c(=O)c5c(F)cnn54)c2F)C3)c(O)n1 [Example 17, 5-(5-((3,6-difluoro-4-oxo-4,5-dihydropyrazolo[1,5-a]quinoxalin-7-yl)methyl)-5,6-dihydropyrrolo[3,4-c]pyrazol-2(4H)-yl)-6-hydroxy-N-methylpicolinamide] | > 100 nM | 
O=C(NC1CC1)c1ccc(-n2cc3c(n2)CN(Cc2ccc4c([nH]c(=O)c5c(F)cnn54)c2F)C3)cn1 [Example 20, 5-(5-((3,6-difluoro-4-oxo-4,5-dihydropyrazolo[1,5-a]quinoxalin-7-yl)methyl)-5,6-dihydropyrrolo[3,4-c]pyrazol-2(4H)-yl)-N-cyclopropylpicolinamide] | 0.65 nM | 
O=C(NC1CC1)c1ccc(-n2cc3c(n2)CN(Cc2ccc4c([nH]c(=O)c5c(F)cnn54)c2F)C3)c(F)n1 [Example 21, N-cyclopropyl-5-(5-((3,6-difluoro-4-oxo-4,5-dihydropyrazolo[1,5-a]quinoxalin-7-yl)methyl)-5,6-dihydropyrrolo[3,4-c]pyrazol-2(4H)-yl)-6-fluoropicolinamide] | 2.14 nM | > 10000 nM
CNC(=O)c1ccc(-n2cc3c(n2)CCN(Cc2ccc4c([nH]c(=O)c5c(F)cnn54)c2F)C3)cn1 [Example 22, 5-(5-((3,6-difluoro-4-oxo-4,5-dihydropyrazolo[1,5-a]quinoxalin-7-yl)methyl)-4,5,6,7-tetrahydro-2H-pyrazolo[4,3-c]pyridin-2-yl)-N-methylpicolinamide] | > 100 nM | 
CNC(=O)c1ccc(-n2cc3c(n2)CCN(Cc2ccc4c([nH]c(=O)c5c(F)cnn54)c2F)C3)c(C)n1 [Example 23, 5-(5-((3,6-difluoro-4-oxo-4,5-dihydropyrazolo[1,5-a]quinoxalin-7-yl)methyl)-4,5,6,7-tetrahydro-2H-pyrazolo[4,3-c]pyridin-2-yl)-N,6-dimethylpicolinamide] | > 100 nM | 
CNC(=O)c1ccc(-n2cc3c(n2)CCN(Cc2ccc4c([nH]c(=O)c5c(F)cnn54)c2F)C3)c(F)n1 [Example 24, 5-(5-((3,6-difluoro-4-oxo-4,5-dihydropyrazolo[1,5-a]quinoxalin-7-yl)methyl)-4,5,6,7-tetrahydro-2H-pyrazolo[4,3-c]pyridin-2-yl)-6-fluoro-N-methylpicolinamide] | > 100 nM | 
CNC(=O)c1ccc(-c2nc3c(o2)CN(Cc2ccc4c([nH]c(=O)c5c(C)cnn54)c2F)C3)cn1 [Example 32, 5-(5-((6-fluoro-3-methyl-4-oxo-4,5-dihydropyrazolo[1,5-a]quinoxalin-7-yl)methyl)-5,6-dihydro-4H-pyrrolo[3,4-d]oxazol-2-yl)-N-methylpicolinamide] | 18.4 nM | 
CNC(=O)c1ccc(-c2nc3c(s2)CN(Cc2ccc4c([nH]c(=O)c5c(C)cnn54)c2F)C3)cn1 [Example 33, 5-(5-((6-fluoro-3-methyl-4-oxo-4,5-dihydropyrazolo[1,5-a]quinoxalin-7-yl)methyl)-5,6-dihydro-4H-pyrrolo[3,4-d]thiazol-2-yl)-N-methylpicolinamide] | > 100 nM | 
CNC(=O)c1ccc(-n2nc3c(c2C)CN(Cc2ccc4c([nH]c(=O)c5c(F)cnn54)c2F)C3)cn1 [Example 40, 5-(5-((3,6-difluoro-4-oxo-4,5-dihydropyrazolo[1,5-a]quinoxalin-7-yl)methyl)-3-methyl-5,6-dihydropyrrolo[3,4-c]pyrazol-2(4H)-yl)-N-methylpicolinamide] | > 100 nM | 
CNC(=O)c1ccc(-c2nc3c(n2C)CN(Cc2ccc4c([nH]c(=O)c5c(F)cnn54)c2F)C3)cn1 [Example 44, 5-(5-((3,6-difluoro-4-oxo-4,5-dihydropyrazolo[1,5-a]quinoxalin-7-yl)methyl)-1-methyl-1,4,5,6-tetrahydropyrrolo[3,4-d]imidazol-2-yl)-N-methylpicolinamide] | > 100 nM | 
CNC(=O)c1ccc(-c2cc3c(o2)CN(Cc2ccc4c([nH]c(=O)c5c(F)cnn54)c2F)C3)cn1 [Example 46, 5-(5-((3,6-difluoro-4-oxo-4,5-dihydropyrazolo[1,5-a]quinoxalin-7-yl)methyl)-5,6-dihydro-4H-furo[2,3-c]pyrrol-2-yl)-N-methylpicolinamide] | 2.16 nM | 
CNC(=O)c1ccc(-c2cc3c(s2)CN(Cc2ccc4c([nH]c(=O)c5c(F)cnn54)c2F)C3)cn1 [Example 47, 5-(5-((3,6-difluoro-4-oxo-4,5-dihydropyrazolo[1,5-a]quinoxalin-7-yl)methyl)-5,6-dihydro-4H-thieno[2,3-c]pyrrol-2-yl)-N-methylpicolinamide] | 14.4 nM | 
CNC(=O)c1ccc(N2CC3CN(Cc4ccc5c([nH]c(=O)c6c(F)cnn65)c4F)CC3C2)c(F)n1 (stereo not drawn) [Example 61, 5-(5-((3,6-difluoro-4-oxo-4,5-dihydropyrazolo[1,5-a]quinoxalin-7-yl)methyl)hexahydropyrrolo[3,4-c]pyrrol-2(1H)-yl)-6-fluoro-N-methylpicolinamide] | > 100 nM | 
CNC(=O)c1ccc(N2CC3CN(Cc4ccc5c([nH]c(=O)c6c(C)cnn65)c4F)CC3C2)c(F)n1 (stereo not drawn) [Example 64, 6-fluoro-5-(5-((6-fluoro-3-methyl-4-oxo-4,5-dihydropyrazolo[1,5-a]quinoxalin-7-yl)methyl)hexahydropyrrolo[3,4-c]pyrrol-2(1H)-yl)-N-methylpicolinamide] | > 100 nM | 
